Laboratory results from PMC5267515, “In Vitro and Clinical Evaluations of the Drug-Drug Interaction Potential of a Metabotropic Glutamate 2/3 Receptor Agonist Prodrug with Intestinal Peptide Transporter 1” (Drug Metabolism and Disposition, 2017).
Entries after “also recorded” stand apart in the source; their conditions may differ. Read-outs that look alike come from different tables or passages of the source. Non-standard residues stand in square brackets, D forms with d. Residues, ends and D or L forms follow the SMILES beside them. Sar = CNCC(=O)O

Legend:
PEPT1 [1] = target: T1, PEPT1 (Homo sapiens, UniProt P46059); parameters: expressed in transfected cells; host or cells: HeLa cells (ATCC), transiently transfected with Fugene 6, pcDNA3.1 vector; method as in Zhang et al. (2004); conditions: Gly-Sar 50 μM; ref Zhang et al. (2004); read-out: IC50 against Gly-Sar; cited from earlier work
T1 sequence (P46059 1-708): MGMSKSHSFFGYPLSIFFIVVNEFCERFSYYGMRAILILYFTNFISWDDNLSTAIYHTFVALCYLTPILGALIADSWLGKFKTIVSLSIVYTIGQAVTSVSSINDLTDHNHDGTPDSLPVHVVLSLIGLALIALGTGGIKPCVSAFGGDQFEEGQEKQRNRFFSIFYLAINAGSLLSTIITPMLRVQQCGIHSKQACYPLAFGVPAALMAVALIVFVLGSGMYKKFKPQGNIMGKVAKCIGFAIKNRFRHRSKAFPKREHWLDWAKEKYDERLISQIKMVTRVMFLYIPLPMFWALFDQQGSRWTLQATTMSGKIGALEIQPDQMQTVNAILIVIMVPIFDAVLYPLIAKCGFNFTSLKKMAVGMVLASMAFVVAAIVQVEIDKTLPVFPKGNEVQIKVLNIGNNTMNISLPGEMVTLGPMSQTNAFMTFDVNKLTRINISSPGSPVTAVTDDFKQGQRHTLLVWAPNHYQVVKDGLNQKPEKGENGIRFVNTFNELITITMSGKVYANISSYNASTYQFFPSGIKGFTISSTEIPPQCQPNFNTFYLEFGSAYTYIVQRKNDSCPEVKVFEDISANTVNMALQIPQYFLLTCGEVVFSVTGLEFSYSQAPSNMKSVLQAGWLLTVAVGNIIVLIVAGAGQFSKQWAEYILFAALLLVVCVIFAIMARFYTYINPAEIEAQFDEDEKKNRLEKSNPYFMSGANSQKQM

PEPT1 [2] = target: T1, PEPT1; assay: Inhibition of PEPT1-mediated [14C]LY2140023 uptake in transfected HeLa cells; conditions: for IC50: 10 μM [14C]LY2140023
Method: Briefly, cells were seeded at a density of 65,000 cells/ml in 24-well plates. After achieving 50 to 80% confluency, cells were transfected with SLC15A1, gene for PEPT1 (accession number NM_005073) inserted in pcDNA3.1 or pcDNA3.1 empty vector (Invitrogen) using Fugene 6 (Roche, Indianapolis, IN) following the manufacturer’s protocol.
The solubility of compounds at these concentrations was checked by using a fiber-optic light source.
where [I] is an inhibitor concentration in micromoles. Top is the highest % activity in the absence of inhibitor, and S is the slope factor.

PEPT1 [3] = target: T1, PEPT1; assay: System validation: proton- and concentration-dependent uptake of [14C]Gly-Sar in PEPT1 transfected HeLa cells; format: in vitro ADME; parameters: expressed in transfected cells; host or cells: HeLa cells (ATCC), transiently transfected with Fugene 6, pcDNA3.1 vector
Method: (§1) Assessment of both the proton-dependent uptake ([Liang et al., 1995]) and the concentration-dependent uptake of [^14C]Gly-Sar by the transiently transfected HeLa cells was used to validate the in vitro system. For proton-dependent uptake, [^14C]Gly-Sar was measured 24 hour post transfection at either pH 6.0 or 7.5. PEPT1- and empty vector-transfected cells were incubated with [^14C]Gly-Sar (50 µM) for 5 minutes at room temperature. Cells transfected with empty pcDNA3.1 vector were used to measure the passive diffusion of [^14C]Gly-Sar. For concentration-dependent uptake, transfected cells were incubated with [^14C]Gly-Sar at concentrations from 50 to 5000 µM for 3 minutes at room temperature. For both proton- and concentration-dependent experiments, cells were washed three times with ice-cold phosphate-buffered saline after incubation with Gly-Sar to stop uptake and then lysed with 0.3 ml 1% triton X-100 in phosphate-buffered saline for 30 minutes at room temperature. Scintillation counting was conducted to determine radioactivity, and protein levels were determined by the bicinchoninic acid method ([Smith et al., 1985]).

PEPT1 [4] = target: T1, PEPT1; parameters: expressed in transfected cells; method as in Han, 1999; conditions: CHO cells transfected with PEPT1, ref Han, 1999, cited from earlier work
PEPT1 [5] = target: T1, PEPT1; assay: Proton- and time-dependent transport of prodrug and active moiety in PEPT1 transfected HeLa cells; format: in vitro ADME; parameters: expressed in transfected cells; host or cells: HeLa cells (ATCC), transiently transfected with Fugene 6, pcDNA3.1 vector; conditions: 30 μM, pH 6.0 or 7.5, PEPT1 vs empty vector transfected HeLa cells
Method: The PEPT1 mediated [^14C]LY2140023 (30 μM) and [^14C]LY404039 (30 μM) uptake was measured in cells 24 hours post transfection. The time-dependent transport of LY2140023 and LY404039 was conducted using buffers prepared at either pH 6.0 or 7.5 as described above. The cells transfected with empty pcDNA3.1 vector were used to measure the passive diffusion of LY2140023 and LY404039. The cells were incubated for 1, 2.5, 5, 7.5, 10, and 15 minutes at room temperature and were washed, lysed, and contents quantified as described above.

MDCK-MDR1 cells = tested on: MDCK-MDR1 cells; parameters: method as in data on file, Eli Lilly and Company; conditions: ref data on file, Eli Lilly and Company; cited from earlier work
[6] = Clinical drug interaction study (H8Y-MC-HBCF), plasma and urine pharmacokinetics in healthy subjects; conditions: for Vd/F: Vz/F; for Tmax: median (min–max)
Method: For the active moiety, the LLQ was 50 ng/ml and the ULQ was 5000 ng/ml.
Actual sampling times were used in the analyses with the exception of predose times, which were set to 0 hour. Area under the curve (AUC) values were determined using log-linear trapezoid methods.
The fraction of the dose excreted (fe) was also determined. For the active moiety dose, the 0.64 correction factor was used as described previously. […] The parameters were log transformed before analysis. The least squares means (LSM) for each treatment and the 90% confidence intervals (CI) for the difference in means between test and reference treatment groups were estimated from the model and back transformed from the log scale to provide estimates of the geometric means and 90% CIs for the ratio of geometric means. The analysis of tmax was based on a nonparametric method. Medians and range for treatments and the P value computed for comparison of median values using Wilcoxon signed rank test are presented.

[7] = substrate: CN(CC(=O)O)C(=O)CN; assay: System validation: proton- and concentration-dependent uptake of [14C]Gly-Sar in PEPT1 transfected HeLa cells; format: in vitro ADME, human; conditions: other: 50 μM to 5 mM, pH 6.0
Method: as §1

[8] = substrate: CSCC[C@H](N)C(=O)N[C@@]1(C(=O)O)CS(=O)(=O)[C@H]2[C@H](C(=O)O)[C@H]21; assay: Concentration-dependent uptake of [14C]LY2140023 in PEPT1 transfected HeLa cells (kinetic parameters); format: in vitro ADME, human
Method: The concentration dependent uptake of [^14C]LY2140023, ranging from 5 up to 149 μM, was determined in PEPT1 transfected HeLa cells with 2- to 3-minute incubation at room temperature. The mean passive diffusion of prodrug at each concentration was obtained in parallel experiments in HeLa cells transfected with pcDNA3.1 empty vector and subtracted from the uptake mediated by PEPT1. The corrected data were fitted by WinNonlin Professional, version 5.0.1 or 5.3 (Certara, L.P., St. Louis, MO). The kinetic parameters of the prodrug mediated by PEPT1 were estimated by utilizing the following equation: [drawing 1] where S is the substrate concentration (μM), Vmax is the maximum uptake rate (pmol/min/mg), and Km is the concentration where uptake reaches a half of Vmax (μM).

[9] = IC50 against LY2140023, first of two separate experiments
[10] = IC50 against LY2140023, second of two separate experiments
[11] = Mean IC50 against LY2140023, mean of two separate experiments
[12] = LY2140023 + Valacyclovir vs LY2140023 Alone
[13] = other: experiment 1, 5 to 146 μM LY2140023, PEPT1 transfected HeLa cells, parameter ± S.E.M.
[14] = other: experiment 2, 6.4 to 149 μM LY2140023, PEPT1 transfected HeLa cells, parameter ± S.E.M.

CC1=C(C(=O)O)N2C(=O)[C@@H](NC(=O)[C@H](N)c3ccc(O)cc3)[C@H]2SC1 [Cefadroxil]
IC50 (PEPT1 [1]): 1.88 ± 0.35 mM
IC50 (PEPT1 [2]; [9]): 4.05 ± 0.44 mM
IC50 (PEPT1 [2]; [10]): 5.93 ± 1.47 mM
IC50 (PEPT1 [2]; [11]): 4.99 mM

CN(CC(=O)O)C(=O)CN [Gly-Sar, glycylsarcosine] (H-Gly-[Sar]-OH)
IC50 (PEPT1 [2]; [9]): 1.29 ± 0.26 mM
IC50 (PEPT1 [2]; [10]): 0.69 ± 0.17 mM
IC50 (PEPT1 [2]; [11]): 0.99 mM
transport at pH 6.0 relative to pH 7.5 (PEPT1 [3]; [14C]Gly-Sar 50 µM, 5 minutes, PEPT1 transfected HeLa cells): approximately five
passive diffusion rate (PEPT1 [3]; control cells (empty pcDNA3.1 vector)): 0.0972 µL/min/mg
reported Vmax (PEPT1 [4]): 3517 pmol/min/mg
Km (PEPT1 [4]; read-out: reported Km): 500 µM

CCOC(=O)[C@H](CCc1ccccc1)N[C@@H](C)C(=O)N1CCC[C@H]1C(=O)O [Enalapril]
IC50 (PEPT1 [1]): 2.13 ± 0.36 mM
IC50 (PEPT1 [2]; [9]): 11 ± 2.64 mM
IC50 (PEPT1 [2]; [10]): 10.3 ± 0.42 mM
IC50 (PEPT1 [2]; [11]): 10.7 mM

N[C@@H](Cc1ccc(O)c(O)c1)C(=O)O [L- DOPA, L-DOPA]
IC50 (PEPT1 [1]): 14.9 ± 2.45 mM
inhibition at 25000 µM (PEPT1 [2]; HeLa, read-out: inhibition of [14C]LY2140023 uptake): < 50%
IC50 (PEPT1 [2]; [9]): 25.3 ± 2.57 mM
IC50 (PEPT1 [2]; [10]): 26.5 ± 9.38 mM
IC50 (PEPT1 [2]; [11]): 25.9 mM

N[C@@]1(C(=O)O)CS(=O)(=O)[C@H]2[C@H](C(=O)O)[C@H]21 [LY404039]
PEPT1 substrate status (PEPT1 [5]): is not a PEPT1 substrate; also recorded: not transported by PEPT1
passive permeability (MDCK-MDR1 cells): approximately 1 × 10^−6 cm/s
CL/F ([6]; LY2140023 80 mg + valacyclovir 1000 mg coadministered, geometric mean (CV%)): 20.5 (24) L/hour
AUC(0-∞) Ratio Test/Reference [6, 12]: 0.94
Cmax Ratio Test/Reference [6, 12]: 0.92
active moiety present at the first sampling time ([6]; after administration of the prodrug): 18 of 21 subjects
half-life ([6]; human, plasma, oral, 80 mg): 3.05 h
AUC(0-inf) ([6]; human, plasma, oral, 80 mg, AUC(0-∞) LS Geometric Mean, LY2140023 Alone (Reference)): 2670 ng·h/mL
AUC(0-inf) ([6]; human, plasma, oral, 80 mg, AUC(0-∞), single 80-mg dose of LY2140023 alone, geometric mean (CV%)): 2600 ng·h/mL
Cmax ([6]; human, plasma, oral, 80 mg, Cmax LS Geometric Mean, LY2140023 Alone (Reference)): 484 ng/mL
Cmax ([6]; human, plasma, oral, 80 mg, Cmax, single 80-mg dose of LY2140023 alone, geometric mean (CV%)): 477 ng/mL
Vd/F ([6]; human, plasma, oral, 80 mg, single 80-mg dose of LY2140023 alone, geometric mean (CV%)): 86.5 L
Tmax ([6]; human, plasma, oral, 80 mg, single 80-mg dose of LY2140023 alone): 4 h
AUC(0-inf) ([6]; human, plasma, oral, AUC(0-∞) LS Geometric Mean, LY2140023 + Valacyclovir (Test)): 2500 ng·h/mL
AUC(0-inf) ([6]; human, plasma, oral, AUC(0-∞), LY2140023 80 mg + valacyclovir 1000 mg coadministered, geometric mean (CV%)): 2490 ng·h/mL
Cmax ([6]; human, plasma, oral, Cmax LS Geometric Mean, LY2140023 + Valacyclovir (Test)): 447 ng/mL
Cmax ([6]; human, plasma, oral, Cmax, LY2140023 80 mg + valacyclovir 1000 mg coadministered, geometric mean (CV%)): 444 ng/mL
Vd/F ([6]; human, plasma, oral, LY2140023 80 mg + valacyclovir 1000 mg coadministered, geometric mean (CV%)): 92.2 L
Tmax ([6]; human, plasma, oral, LY2140023 80 mg + valacyclovir 1000 mg coadministered): 4 h
CL renal ([6]; human, urine and plasma, oral, 80 mg): 213 mL/min
CL/F ([6]; single 80-mg dose of LY2140023 alone, geometric mean (CV%)): 19.7 (16) L/hour

NCC(=O)CCC(=O)O [ALA, 5-aminolevulinic acid]
IC50 (PEPT1 [1]): 0.78 ± 0.26 mM
IC50 (PEPT1 [2]; [9]): 1.77 ± 0.21 mM
IC50 (PEPT1 [2]; [10]): 1.56 ± 0.22 mM
IC50 (PEPT1 [2]; [11]): 1.67 mM

B1: PEPT1 (Homo sapiens) (protein)
chain: MGMSKSHSFFGYPLSIFFIVVNEFCERFSYYGMRAILILYFTNFISWDDNLSTAIYHTFVALCYLTPILGALIADSWLGKFKTIVSLSIVYTIGQAVTSVSSINDLTDHNHDGTPDSLPVHVVLSLIGLALIALGTGGIKPCVSAFGGDQFEEGQEKQRNRFFSIFYLAINAGSLLSTIITPMLRVQQCGIHSKQACYPLAFGVPAALMAVALIVFVLGSGMYKKFKPQGNIMGKVAKCIGFAIKNRFRHRSKAFPKREHWLDWAKEKYDERLISQIKMVTRVMFLYIPLPMFWALFDQQGSRWTLQATTMSGKIGALEIQPDQMQTVNAILIVIMVPIFDAVLYPLIAKCGFNFTSLKKMAVGMVLASMAFVVAAIVQVEIDKTLPVFPKGNEVQIKVLNIGNNTMNISLPGEMVTLGPMSQTNAFMTFDVNKLTRINISSPGSPVTAVTDDFKQGQRHTLLVWAPNHYQVVKDGLNQKPEKGENGIRFVNTFNELITITMSGKVYANISSYNASTYQFFPSGIKGFTISSTEIPPQCQPNFNTFYLEFGSAYTYIVQRKNDSCPEVKVFEDISANTVNMALQIPQYFLLTCGEVVFSVTGLEFSYSQAPSNMKSVLQAGWLLTVAVGNIIVLIVAGAGQFSKQWAEYILFAALLLVVCVIFAIMARFYTYINPAEIEAQFDEDEKKNRLEKSNPYFMSGANSQKQM
notes: expressed in transfected cells; host or cells: HeLa cells (ATCC), transiently transfected with Fugene 6, pcDNA3.1 vector
Km [7]: 427.9 µM
Vmax [7]: 3975.3 pmol/min/mg
Km ([8]; other: approximate value over experiments): 30 µM
Km [8, 13]: 28.66 ± 5.01 µM
Vmax [8, 13]: 0.000238 µmol/min/mg
Km [8, 14]: 29.98 ± 5.29 µM
Vmax [8, 14]: 0.000573 µmol/min/mg
